{"source": "paper PMC2981508", "about": "(Science (New York, N.Y.), 2009)", "key": {"[1]": {"target": "T1, AR (Homo sapiens, UniProt P10275)", "T1 sequence (P10275 1-920)": "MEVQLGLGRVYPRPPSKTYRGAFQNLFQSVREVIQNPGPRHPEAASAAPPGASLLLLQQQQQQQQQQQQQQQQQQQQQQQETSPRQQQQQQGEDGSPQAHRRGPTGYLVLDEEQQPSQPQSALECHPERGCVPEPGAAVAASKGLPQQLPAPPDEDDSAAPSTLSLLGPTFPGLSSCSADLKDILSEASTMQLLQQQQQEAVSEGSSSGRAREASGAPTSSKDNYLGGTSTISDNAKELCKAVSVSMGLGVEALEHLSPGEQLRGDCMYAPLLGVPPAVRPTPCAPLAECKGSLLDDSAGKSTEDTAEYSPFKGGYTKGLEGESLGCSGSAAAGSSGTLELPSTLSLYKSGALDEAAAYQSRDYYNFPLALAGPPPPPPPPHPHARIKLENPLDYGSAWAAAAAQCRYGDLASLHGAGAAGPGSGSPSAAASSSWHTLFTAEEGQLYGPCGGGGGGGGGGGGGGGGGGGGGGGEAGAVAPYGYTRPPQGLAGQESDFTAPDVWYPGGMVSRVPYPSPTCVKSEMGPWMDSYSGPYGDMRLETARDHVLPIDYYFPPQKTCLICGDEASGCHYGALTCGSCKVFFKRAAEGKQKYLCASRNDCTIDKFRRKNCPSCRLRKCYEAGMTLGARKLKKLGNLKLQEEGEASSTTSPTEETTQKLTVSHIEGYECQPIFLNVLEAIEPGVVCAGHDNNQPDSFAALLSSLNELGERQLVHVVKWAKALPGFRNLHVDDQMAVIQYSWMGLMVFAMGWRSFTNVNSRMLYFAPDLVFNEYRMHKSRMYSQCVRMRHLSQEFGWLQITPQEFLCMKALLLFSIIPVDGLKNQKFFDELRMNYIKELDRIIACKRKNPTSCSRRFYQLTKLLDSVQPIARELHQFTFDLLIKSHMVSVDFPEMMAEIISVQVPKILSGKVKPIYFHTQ", "assay": "in vitro studies of AR activity", "type": "cell-based"}, "[2]": {"test_system": "VCaP cells", "assay": "VCaP apoptosis", "type": "cell-based, human", "conditions": "10 μM, 1 or 3 days, PARP cleavage"}, "[3]": {"test_system": "AR target genes PSA and TMPRSS2 in LNCaP/AR cells", "assay": "qRT-PCR of AR-dependent genes in LNCaP/AR cells", "type": "cell-based, human", "conditions": "androgen-depleted media 5% CSS, 8 hours, 1 and 10 μM"}, "[4]": {"assay": "Pharmacokinetics of RD162 in mice"}, "[5]": {"test_system": "PSA and TMPRSS2 in parental LNCaP cells", "assay": "Antagonism of R1881 induction of PSA and TMPRSS2 in parental LNCaP cells", "type": "cell-based, human"}, "[6]": {"assay": "Plasma levels in LNCaP/AR tumor-bearing mice", "conditions": "10 mg/kg oral daily, 20 hours after the final dose on day 28"}, "[7]": {"test_system": "DU145 prostate cancer xenografts", "assay": "AR-negative DU145 prostate cancer xenografts", "parameters": "species or system mice", "conditions": "mouse, in vivo"}, "[8]": {"test_system": "AR recruitment to PSA enhancer and TMPRSS2 enhancer in LNCaP/AR cells", "assay": "Chromatin immunoprecipitation of AR in LNCaP/AR cells", "type": "cell-based, human"}, "[9]": {"test_system": "AR recruitment to PSA enhancer and TMPRSS2 enhancer in parental LNCaP cells", "assay": "Chromatin immunoprecipitation of AR in parental LNCaP cells", "type": "cell-based, human"}, "[10]": {"target": "T2, progesterone receptor (Homo sapiens, UniProt P06401)", "T2 sequence (P06401 1-933)": "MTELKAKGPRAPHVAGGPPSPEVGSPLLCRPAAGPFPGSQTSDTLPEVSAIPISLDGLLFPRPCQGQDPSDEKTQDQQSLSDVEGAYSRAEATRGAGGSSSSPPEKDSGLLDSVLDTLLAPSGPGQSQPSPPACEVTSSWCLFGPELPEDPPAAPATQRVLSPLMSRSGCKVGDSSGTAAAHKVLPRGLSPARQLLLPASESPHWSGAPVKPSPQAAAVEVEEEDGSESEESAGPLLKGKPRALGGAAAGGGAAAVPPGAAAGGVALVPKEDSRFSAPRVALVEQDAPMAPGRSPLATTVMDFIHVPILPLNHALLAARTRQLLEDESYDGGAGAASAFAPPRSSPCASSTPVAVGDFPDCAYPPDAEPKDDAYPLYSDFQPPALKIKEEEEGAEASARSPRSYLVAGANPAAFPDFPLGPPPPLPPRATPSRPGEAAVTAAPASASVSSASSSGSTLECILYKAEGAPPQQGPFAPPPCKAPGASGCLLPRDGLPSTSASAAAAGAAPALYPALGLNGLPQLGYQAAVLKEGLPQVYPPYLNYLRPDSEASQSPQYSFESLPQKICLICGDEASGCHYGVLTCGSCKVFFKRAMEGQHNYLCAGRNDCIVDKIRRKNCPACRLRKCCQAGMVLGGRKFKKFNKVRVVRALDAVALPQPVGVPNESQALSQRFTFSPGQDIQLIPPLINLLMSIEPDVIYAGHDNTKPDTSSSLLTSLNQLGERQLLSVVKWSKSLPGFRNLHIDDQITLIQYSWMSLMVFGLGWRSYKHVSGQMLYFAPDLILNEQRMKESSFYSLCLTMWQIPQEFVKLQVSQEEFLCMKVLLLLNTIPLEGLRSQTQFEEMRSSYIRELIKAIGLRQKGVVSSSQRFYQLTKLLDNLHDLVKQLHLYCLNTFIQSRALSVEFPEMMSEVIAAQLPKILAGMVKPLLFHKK", "assay": "in vitro fluorescence polarization binding assay"}, "[11]": {"test_system": "LNCaP/AR tumors", "assay": "LNCaP/AR xenograft model of CRPC in castrate male mice"}, "[12]": {"test_system": "VP16-AR fusion protein", "type": "cell-based", "conditions": "Cos-7 cells, 24 hours"}}, "data": [{"smiles": "CNC(=O)c1ccc(N2C(=S)N(c3ccc(C#N)c(C(F)(F)F)c3)C(=O)C23CCC3)cc1F", "note": "[RD162]", "values": [{"measurement": "concentrations expected to block AR activity based on the in vitro studies", "setting": "[1]", "result": "1 to 10", "unit": "µM"}, {"measurement": "Apoptosis in VCaP cells", "setting": "[2]", "result": "induced apoptosis"}, {"measurement": "Expression of AR target genes PSA and TMPRSS2 (agonist activity)", "setting": "[3]", "result": "do not have agonist activity"}, {"measurement": "bioavailable after oral delivery", "setting": "[4]", "result": "~50", "unit": "%"}, {"measurement": "serum half-life", "setting": "[4]", "result": "about 30 hours"}, {"measurement": "Trough levels", "setting": "[4]; 24 hours after a single 20 mg/kg oral dose", "result": "~23", "unit": "µM"}, {"measurement": "Antagonism of induction of PSA and TMPRSS2 by R1881", "setting": "[5]", "result": "antagonized induction"}, {"measurement": "Plasma levels (mean)", "setting": "[6]", "result": 24, "unit": "µM"}, {"measurement": "growth of AR-negative DU145 xenografts", "setting": "[7]", "result": "neither bicalutamide nor RD162 impaired the growth"}, {"measurement": "AR recruitment to PSA enhancer and TMPRSS2 enhancer", "setting": "[8]", "result": "Neither RD162 nor MDV3100 recruited AR"}, {"measurement": "AR recruitment to PSA enhancer and TMPRSS2 enhancer", "setting": "[9]", "result": "Neither RD162 nor MDV3100 recruited AR"}, {"measurement": "binding to progesterone receptor", "setting": "[10]", "result": "little to no binding"}, {"measurement": "antitumor activity", "setting": "[11]; 0.1 mg/kg", "result": "some slowing of tumor growth"}, {"measurement": "antitumor activity", "setting": "[11]; 1 mg/kg", "result": "a few tumor regressions"}, {"measurement": "Tumors no longer palpable (of 12)", "setting": "[11]; 10 mg/kg oral daily, 28 days", "result": "three tumors"}, {"measurement": "Tumors regressed (12 tumors per group)", "setting": "[11]; 10 mg/kg oral daily, 28 days", "result": "all twelve tumors"}, {"measurement": "Tumors regressed by greater than 50 percent (of 12)", "setting": "[11]; 10 mg/kg oral daily, 28 days", "result": "nine tumors"}, {"measurement": "Median time to tumor progression", "setting": "[11]; continual 10 mg/kg oral daily treatment", "result": 186, "unit": "days"}, {"measurement": "Activation of VP16-AR", "setting": "[12]", "result": "neither RD162 nor MDV3100 activated VP16-AR"}]}]}
